In patent publication US9790218B2, “Small molecule activators of calcium-activated chloride channels and methods of use” (The Regents of the University of California, priority 2011, dated 2017):

Columns and labels:
[1] = test system: non-CF human tracheal gland (HTG) serous cells; experiment: Short-circuit current in human tracheal gland (HTG) serous cells; format: cell-based; conditions: Eact 10 μM, UTP 100 μM
Experimental: FIG. 5A-B. Airway epithelial chloride secretion. FIG. 5A. Short-circuit current in CF HBE cells. Eact and UTP (100 μM) were added in control (left) and IL-4 (10 ng/ml, 24 h, middle) treated CF HBE cells. (right) Summary of Eact-induced, T16Ainh-A01-sensitive peak current (mean±S.E., n=6-8, * P<0.05). ENaC was inhibited by 10 μM amiloride. FIG. 5B. Eact (10 μM) and UTP (100 μM) induced CaCC Cl^− current measured in primary cultures of non-CF human tracheal gland (HTG) serous cells. (left and gmiddle) TMEM16A, CFTR and ENaC were inhibited by pretreatment with T16Ainh-A01, CFTRinh-172 and amiloride, respectively. Inset: TMEM16A immunoblot in whole cell homogenates of CF HBE and HTG cells. (right) Summary of UTP and Eact-induced peak current in the presence and absence of T16Ainh-A01 (mean±S.E., n=3, * P<0.05). […]
Snapwell inserts containing TMEM16A-expressing FRT, HBE, CF HBE or HTG cells were mounted in Ussing chambers (Physiologic Instruments, San Diego, Calif.). […] Apical membrane current (for FRT cells) and short-circuit current were measured using an EVC4000 Multi-Channel V/I Clamp (World Precision Instruments, Sarasota, Fla.) and recorded using PowerLab/8sp (AD Instruments, Castle Hill, Australia). […]

[2] = test system: CF human bronchial epithelial (CF HBE) cells; experiment: Short-circuit current in CF HBE cells; format: cell-based; conditions: no IL-4; UTP 100 μM
Experimental: FIG. 5A-B. Airway epithelial chloride secretion. FIG. 5A. Short-circuit current in CF HBE cells. Eact and UTP (100 μM) were added in control (left) and IL-4 (10 ng/ml, 24 h, middle) treated CF HBE cells. (right) Summary of Eact-induced, T16Ainh-A01-sensitive peak current (mean±S.E., n=6-8, * P<0.05). ENaC was inhibited by 10 μM amiloride. FIG. 5B. Eact (10 μM) and UTP (100 μM) induced CaCC Cl^− current measured in primary cultures of non-CF human tracheal gland (HTG) serous cells. (left and gmiddle) TMEM16A, CFTR and ENaC were inhibited by pretreatment with T16Ainh-A01, CFTRinh-172 and amiloride, respectively. Inset: TMEM16A immunoblot in whole cell homogenates of CF HBE and HTG cells. (right) Summary of UTP and Eact-induced peak current in the presence and absence of T16Ainh-A01 (mean±S.E., n=3, * P<0.05).
Tracheal and bronchial tissues were obtained from non-CF and CF patients following lung transplantation or from postmortem examinations performed within 24 h after death. […]
Snapwell inserts containing TMEM16A-expressing FRT, HBE, CF HBE or HTG cells were mounted in Ussing chambers (Physiologic Instruments, San Diego, Calif.). […] Apical membrane current (for FRT cells) and short-circuit current were measured using an EVC4000 Multi-Channel V/I Clamp (World Precision Instruments, Sarasota, Fla.) and recorded using PowerLab/8sp (AD Instruments, Castle Hill, Australia).

[3] = test system: human bronchi submucosal glands; experiment: Airway submucosal gland fluid secretion in human bronchi; conditions: serosal application; 300 nM carbachol, 20 μM Eact
Experimental: FIG. 6A-C. Airway submucosal gland fluid secretion in human bronchi. FIG. 6A. TMEM16A immunohistochemistry in CF (left) and non-CF (right) human bronchi showing apical membrane expression in serous gland epithelial cells (arrows). Scale bar: 20 μm. FIG. 6B. Mucous (fluid) secretion in human bronchi. (top) Images of mucus bubbles formed under oil in response to basolateral application of 300 nM carbachol (CCh) and 20 μM Eact. TMEM16A was inhibited by 30 μM T16Ainh-A01. Individual fluid bubbles marked with arrowheads. Scale bar: 0.5 mm. (bottom) CCh and Eact-induced secretion rates. Where indicated, tissues were pre-treated with T16Ainh-A01 (30 μM). Each point is the average of measurements made from 20 glands (mean±S.E. * P<0.05). FIG. 6C. Summary of human gland fluid secretion rates measured at 20 min after addition of 20 μM Eact, and 30 min after application of 300 nM carbachol (CCh) and 10 μM forskolin (20-66 glands from 3 tracheas and 4 bronchus). In CF-bronchi, 6 glands from one donor were stimulated by Eact. […]
Similar staining was found in non-CF and CF human bronchi. Fluid secretion was measured in individual submucosal glands from the increasing size of mucus (fluid) bubbles in which airway fragments were mounted in a 37° C. perfusion chamber and the mucosal solution was covered with oil.

[4] = test system: mouse ileal smooth muscle; experiment: Intestinal smooth muscle contraction, ex vivo mouse ileal segments; conditions: carbachol 1 μM
Experimental: FIG. 8A-C. Intestinal smooth muscle contraction. FIG. 8A. Representative traces from mouse ileal segments showing effects of T16Ainh-A01 (10 μM), carbachol (CCh, 1 μM) and Eact (10 μM). FIG. 8B. Effect of CCh (1 μM) and Eact (10 μM) following atropine (1 μM). FIG. 8C. Summary of contraction frequency (left), and resting and maximum tone (right) (mean±S.E., n=4-7, * P<0.05).
Wild type CD1 mice (age 8-10 weeks) were killed by avertin overdose (200 mg/kg). The ileum removed and washed with ice-cold HCO3^−-buffered solution. The ends of the ileal segments were tied with silk thread and connected to a force transducer. Beal segments were equilibrated for 60 min with a resting force of ˜1 mN, with changes of the bathing solution every 15 min. Tension was monitored continuously with a fixed-range precision force transducer (TSD, 125 C; Biopac, Goleta, Calif.) connected to a differential amplifier (DA 100B; Biopac). Data were recorded using MP100, Biopac digital acquisition system and analyzed using Acknowledge 3.5.7 software.
TMEM16A in expressed in the interstitial cells of Cajal, the pacemaker cells that control smooth muscle contraction dynamics in stomach and intestine (Huang et al., supra; Gomez-Pinilla et al. (2009) Am. J. Physiol. Gastrointest. Liver Physiol. 296, G1370-1381). The effect of Eact on mouse ileal smooth muscle contraction was investigated using an ex vivo intestinal preparation. […] Without wishing to be bound by theory, the constitutive TMEM16A activity in this ex vivo preparation could obscure Eact activity. To reveal Eact effects, atropine was first added to inhibit basal contractions. […] FIG. 8C summarizes data on contraction frequency, resting tone and maximal tone.

Structure (SMILES)	Cl^− current in HTG serous cells [1]	Cl^− current in untreated CF bronchial epithelial cells [2]	gland fluid secretion rate [3]	contraction frequency [4]	resting and maximum tone ([4]; Eact 10 μM, no atropine)
O=c1ccn([C@@H]2O[C@H](COP(=O)(O)OP(=O)(O)OP(=O)(O)O)[C@@H](O)[C@H]2O)c(=O)[nH]1 [UTP, reference compound]	increased Cl^− current	produced a large Cl^− current	–	–	–
C[N+](C)(C)CCOC(N)=O [carbachol]	–	–	significantly increased secretion	without change in contraction frequency	increased
